According to patent US11649222B2, “Compounds” (UNIVERSITETET I OSLO, priority 2016, dated 2023):
Several values for one entry are separate records, joined by “and”; a condition that tells them apart may be missing. Equal values may be shown once. Read-outs that look alike come from different tables or passages of the source.

Columns and labels:
[1] = tested on: K. pneumoniae K66-45 (NDM-1); assay: Microbroth dilution MIC of carbapenem with/without inhibitor; format: cell-based
Summary of the method: (§1)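 Broth microdilution in MH broth with 2-fold compound/antibiotic dilution series. Inoculum from a 0.5 McFarland suspension diluted 1:100, final 3-7×10^5 CFU/ml confirmed by colony count. Strains pre-grown overnight at 37° C, ampicillin 100 mg/L plates for ESBL/carbapenemase producers.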

[2] = tested on: P. aeruginosa K34-7 (VIM-2); assay: as above; format: cell-based; settings: Example 26 25 mg/L
Summary of the method: as §1

[3] = tested on: K. pneumoniae 50732159 (No MBL); assay: Microbroth dilution MIC of meropenem with/without inhibitor; format: cell-based; settings: inhibitor 25 mg/L
Method: (§2) • Plate bacterial strain(s) on appropriate media: • Gram-negative bacteria with ESBLs or carbapenemases: green agar plates with 100 mg/L ampicillin • Gram-negative bacteria without β-lactamases: green agar plates • Gram-positive bacteria (Staphylococci and Enterococci): blood agar plates • Incubate o.n. at 37° C. […] (Should be used within 15 min of preparation). • Dilute the 0.5 McFarland suspension 1:100 into MH broth. […] Plate 10 μl of the dilution on MH agar plates (×2). Incubate o.n. at 37° C., count the colonies and calculate the final CFU/ml inoculum in the plate by multiplying the average number of colonies with 10000 and divide by 2. The final inoculum should be between 3-7×10^5 CFU/ml. • Add 50 μl of the prepared bacterial suspension to each well in the microtiter plate except negative growth control. Preparation of Compounds/Antibiotics • Calculate the desired concentration-range and volume of the compounds/antibiotics in the assay. […] Dilute the stock solution in MH broth. Make subsequent 2-fold dilutions in MH broth of the desired concentrations if a concentration range is to be tested (remember the extra dilution factor in the assay plate). Always include extra volume for pipetting. Take into consideration stock solutions that are made in buffers that have an effect on bacterial growth (e.g. DMSO).

[4] = tested on: P. aeruginosa 50692172 (NDM-1); assay: as above; format: cell-based; settings: inhibitor 25 mg/L
Method: as §2

[5] = tested on: P. aeruginosa 50808021 (No MBL); assay: as above; format: cell-based; settings: inhibitor 25 mg/L
Method: as §2

[6] = tested on: resistant gram-negative MBL-based bacteria; assay: MICx: adjuvant concentration giving carbapenem MIC ≤ 2 mg/L; format: cell-based; settings: lowest concentration of compound X that results in a MIC value of ≤ 2 mg/L for carbapenem antibiotics
Summary of the method: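 Broth microdilution in MH broth; 0.5 McFarland suspension diluted 1:100 to a final inoculum of 3-7×10^5 CFU/ml. Compounds tested as 2-fold dilutions in MH broth. Carbapenemase/ESBL strains were pre-grown overnight at 37 °C on agar containing 100 mg/L ampicillin.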

E. coli (NDM) = assay: Microbroth dilution MIC of meropenem ± 25 mg/L inhibitor; format: cell-based; settings: E. coli NDM (several strains)
Method: (§3) • Plate bacterial strain(s) on appropriate media: • Gram-negative bacteria with ESBLs or carbapenemases: green agar plates with 100 mg/L ampicillin • Gram-negative bacteria without β-lactamases: green agar plates • Gram-positive bacteria (Staphylococci and Enterococci): blood agar plates • Incubate o.n. at 37° C. Day 2: Prepare the Bacterial Inoculum: • Prepare a 0.5 McFarland suspension of bacteria in 0.85% NaCl. (Should be used within 15 min of preparation). • Dilute the 0.5 McFarland suspension 1:100 into MH broth. Check the inoculum by diluting the prepared bacterial suspension 1:100 (10 μl bacterial suspension+990 μl 0.85% NaCl). Plate 10 μl of the dilution on MH agar plates (×2). Incubate o.n. at 37° C., count the colonies and calculate the final CFU/ml inoculum in the plate by multiplying the average number of colonies with 10000 and divide by 2. The final inoculum should be between 3-7×10^5 CFU/ml. • Add 50 μl of the prepared bacterial suspension to each well in the microtiter plate except negative growth control. Preparation of Compounds/Antibiotics • Calculate the desired concentration-range and volume of the compounds/antibiotics in the assay. […] Dilute the stock solution in MH broth. Make subsequent 2-fold dilutions in MH broth of the desired concentrations if a concentration range is to be tested (remember the extra dilution factor in the assay plate). Always include extra volume for pipetting. Take into consideration stock solutions that are made in buffers that have an effect on bacterial growth (e.g. DMSO).

K. pneumoniae (NDM) = assay: as above; format: cell-based; settings: K. pneumoniae NDM (several strains)
Method: as §3

K. pneumoniae K66-45 = format: cell-based
Method: After plating and grown overnight at 37° C., only single colonies, ignoring any touching the edges of the plate, were counted.
10^9 CFU K66-45 (Mueller-Hinton broth, no selection) was plated and grown overnight, 37° C. Only single colonies, ignoring any touching the edges of the plate, were counted.

[7] = Solution stability on storage, measured indirectly by MIC; format: physicochemical; settings: solution stored at 2-8° C.; MIC at 25 mg/L inhibitor
Description: P. aeruginosa harboring VIM-2 and K. pneumonia bearing NDM-1 was used as two indicator strains.

[8] = tested on: K. pneumoniae K66-45 and P. aeruginosa K34-7; assay: Microbroth dilution MIC, carbapenem + inhibitor, two resistant clinical isolates; format: cell-based; settings: Example 26 25 mg/L, three batches; meropenem and doripenem
Method: as §3

[9] = tested on: meropenem-resistant K. pneumonia and E. coli; assay: Checkerboard MIC, all MDR isolates; format: cell-based; settings: for some of the strains
Method: A checkerboard MIC assay was using the broth dilution method according to CLSI guidelines. […] Dilutions to 4 mg/ml was performed by adding+4.75 ml sterile saline to 0.25 ml of the stock solution, and dilutions to 512 μg/ml was performed by adding 10.9 ml MH-broth to the 4 mg/ml solution. Inoculums of bacterial strains as described in Table 4 were prepared by suspending fresh overnight colonies from 5% horse blood agar were to a turbidity of 0.5 McFarland and further diluted to 1×10^6 CFU/ml in MH-broth. Aliquots of 50 μl of MH-broth were added to each well of polystyrene microtiter plates. […] The plates were incubated at 35° C., 16-20 hours.

[10] = tested on: human serum albumin and α1-acid glycoprotein (AGP); settings: 500 μM Example 26; HSA and AGP 24:1 up to 140 μM
Method: Enzymes in the kit are immobilized at a solid phase. […] Buffer without inhibitor was included as a control. After incubation, the suspensions were centrifuged and diluted 1:10 in 50 mM HEPES buffer pH 7.5 supplemented with 1 μM zinc^2+ and VIM-2 (final concentration 1 nM).

E. coli 50639799 (VIM-1) = assay: Microbroth dilution MIC of meropenem with/without inhibitor; format: cell-based
Method: as §3
(§4) This experimental design was used for the results in Tables 2-6 below.

E. coli K71-77 (NDM-1) = assay: as above; format: cell-based
Method: as §3, §4

[11] = tested on: K. pneumoniae A3-81 (VIM-1); assay: as above; format: cell-based
Method: as §3, §4

CN(C[C@H](O)[C@@H](O)[C@H](O)[C@H](O)CO)C(=O)c1ccc(CN(Cc2ccccn2)Cc2ccccn2)nc1 [Example 26, 6-((bis(pyridin-2-ylmethyl)amino)methyl)-N-methyl-N-((2S,3R,4R,5R)-2,3,4,5,6-pentahydroxyhexyl)nicotinamide]
MIC of doripenem (DOR) + Example 26 ([1]; Example 26 25 mg/L, K. pneumoniae K66-45 NDM-1): 0.25 mg/L and 0.125 mg/L (2×) | MIC ([1]; Klebsiella pneumoniae, inhibitor 31.25 μM, 50 μM and 100 μM, K. pneumoniae K66-45, read-out: MIC of MEM in the presence of inhibitor): 0.125 µg/mL | MIC of meropenem ([1]; inhibitor 31.25 μM, K. pneumoniae K66-45 NDM-1): 0.125 | MIC of meropenem ([1]; inhibitor 50 μM, K. pneumoniae K66-45 NDM-1): 0.125 | MIC of doripenem (DOR) + Example 26 [2]: 1 µg/mL | Meropenem activity in presence of inhibitor [3]: 32 mg/L | Meropenem activity in presence of inhibitor [4]: 4 mg/L | Meropenem activity in presence of inhibitor [5]: >64 mg/L | MICx [6]: 31 µM | MIC meropenem + 25 mg/L Example 26 (E. coli (NDM)): 0.125 µg/mL | MIC meropenem + 25 mg/L Example 26 (K. pneumoniae (NDM)): 0.06 µg/mL | Resistance/mutant frequency (number of colonies) (K. pneumoniae K66-45; Example 26 15 mg/L, 8 mg/L MEM): n.c. | Resistance/mutant frequency (number of colonies) (K. pneumoniae K66-45; Example 26 25 mg/L, 4 mg/L MEM): n.c. | Resistance/mutant frequency (number of colonies) (K. pneumoniae K66-45; Example 26 25 mg/L, 8 mg/L MEM): n.c. | Resistance/mutant frequency (number of colonies) (K. pneumoniae K66-45; Example 26 50 mg/L, 4 mg/L MEM): n.c. | Resistance/mutant frequency (number of colonies) (K. pneumoniae K66-45; Example 26 50 mg/L, 8 mg/L MEM): n.c. | storage time at which a loss of activity was observed [7]: > 8 months | factor of potentiation of carbapenems [8]: 32-256 times | amplification of the effect of meropenem [9]: > 1000 times | effect of protein binding on inhibition of VIM-2 [10]: protein binding is not affecting the inhibitory activity

C[C@@H](O)[C@H]1C(=O)N2C(C(=O)O)=C(S[C@@H]3CN[C@H](C(=O)N(C)C)C3)[C@H](C)[C@H]12 [meropenem, reference compound]
Meropenem activity without inhibitor (E. coli 50639799 (VIM-1)): 8 to 32 mg/L | Meropenem activity without inhibitor (E. coli K71-77 (NDM-1)): 1 to 8 mg/L | Meropenem activity without inhibitor [11]: 64 to 256 mg/L
